Key:
Assay in all cases: field test of gametocidal activity (sterilisation of anthers)
[1] = system: Sommerweizens Sorte Botanicheskaya 4; type: in vivo, Sommerweizen; conditions: V. Periode, 1%ige wäßrige Emulsion, 8 kg/ha; for Prozentsatz des Ansetzens der Körner bei freier Bestäubung: control = 100
Description: (§1) Die gametozide Aktivität der erfindungsgemäßen Sterilisationsmittel war in Feldversuch in verschiedenen bodenklimatischen Zonen mit Teilstücken von 10 m^2 Größe in drei-- bis viermaliger Wiederholung nachgewiesen. Jedes Sterilisationsmittel wurde mindestens 5 Jahre lang geprüft.
(§2) Die Entwicklung der Perioden der Organogenese wird zytologisch überwacht. Die Behandlung von Pflanzen mit dem Sterilisationsmittel erfolgt am Anfang der fünften Periode der Organogenese nach Kupermann.
(§3) Mit dem Ahrenschieben verwirklicht man die Isolierung von Hauptähren und anderen Stockwerken in Pergamentbeuteln. Bei Weizen und Tritikale werden Einzelisolatoren verwendet. Bei Roggen schließt man je 1 Ähre von 5 bis 7 verschiedenen nebeneinander befindlichen Pflanzen in einen gemeinsamen Isolator ein. Bei Hirse wird jede Rispe getrennt isoliert. Der Sterilitätsprozentsatz (X) für Weizen, Roggen, Tritikale und Hirse wird nach der Formel [formula]
(§4) Samen von unbehandelten Kontrollpflanzen ermittelt.
(§5) Die Kornzahl in nicht isolierten Ähren von Kontrollpflanzen wird bedingt für 100% Ansetzen bei freier Bestäubung angenommen.
(§6) Um zuverlässige Angaben zu erhalten, verwendet man 20 bis 25 Isolatoren jeder Wiederholung für Weizen und Tritikale, 10 bis 15 Isolatoren jeder Wiederholung für Roggen und Hirse.
Pflanzen des Sommerweizens Sorte Botanicheskaya 4 werden in der V. Periode der Organogenese (nach kupermann) mit einer l%igen wäßrigen Emulsion von Phthalsäuredibutylester, Phthalsauredipropylester, Natriumsalz der 2-Methyl-3-zyklo- hexenkarbonsäure, 2-Methyl-3-zyklohexenkarbonsäuremethyl- ester behandelt. Die Emulsion enthalt 0,01 Masse% Tetrahydrofuran und 0,1 Masse% C12-C14-Kalziumalkylbenzolsulfonat. Der Verbrauch an Präparat beträgt 8 kg/ha. Als Kontrolle dienen Pflanzen, behandelt mit einem Verdünner ohne Sterilisationsmittel

[2] = system: Tritikale der Sorte PRAG-109; type: in vivo; conditions: V. Periode, 1%ige wäßrige Emulsion, 10 kg/ha
Description: as §1, §2, §3, §4, §5, §6
Pflanzen Tritikale der Sorte PRAG-109 werden in der V. Periode der Organogenese (nach Kupermann) mit einer 1%igen wäßrigen Emulsion von Phthalsäuredibutylester, Phthalsäurediäthylester, Phthalsäuredihexylester, Phthalsäurediisobutylester, Kaliumsalz der 2-Methyl-3-zyklohexenkarbon- säure, 2-Methyl-3-zyklohexenkarbonsäuremethylester behandelt. Die Emulsion enthält 0,01 Masse% Dimethylsulfoxid und 0,1 Masse% C12C14- Kalziumalkylbenzolsulfonat. Der Verbrauch an Präparat beträgt 10 kg/ha. Als Kontrolle dienen Pflanzen, behandelt mit einem Verdünner ohne Sterilisationsmittel. […]
In allen Fällen dienen als Kontrolle Pflanzen, behandelt mit einem Verdünner ohne Sterilisationsmittel. Die Prüfergebnisse sind in der Tabelle 20 angeführt. […] Periode der Organogenese erhalten.

[3] = system: tetraploidem Roggen Sorte Ukrainskaya; type: in vivo; conditions: V. Periode, wäßrige Emulsion (concentration not given), 6 kg/ha; for Prozentsatz des Ansetzens der Körner bei freier Bestäubung: control = 100
Description: as §1, §2, §3, §4, §5, §6
Pflanzen von tetraploidem Roggen Sorte Ukrainskaya werden in der V. Periode der Organogenese (nach Kupermann) mit einer wäßrigen Emulsion von Ammoniumsalz der 2-Methyl-3--zyklohexenkarbonsäure, Phthalsäurediäthylester, Kaliumsalz der Benzoesäure, Phthalsäurediisobutylester behandelt. Die Emulsion enthält 0,01 Masse% Dimethylformamid und 0,1 Masse% C12-C14-Kalziumalkylbenzolsulfonat. Der Verbrauch an Präparat beträgt 6 kg/ha. Als Kontrolle dienen Pflanzen, behandelt mit einem Verdünner ohne Sterilisationsmittel. Die Prüfergebnisse sind in der Tabelle 11 angeführt. […] Periode der Organogenese erhalten.

[4] = system: Tritikale Sorte Amfidiploid 206; type: in vivo; conditions: V. Periode, 1%ige wäßrige Emulsion, 6 kg/ha; for Prozentsatz des Ansetzens bei freier Bestäubung: control = 100
Description: as §1, §2, §3, §4, §5, §6
Pflanzen Tritikale Sorte Amfidiploid 206 werden in der V.Periode der Organogenese (nach Kupermann) mit einer l%igen wäßrigen Emulsion von Phthalsäuredipropylester, Phthalsäurediisobutylester, Kaliumsalz der 2-Methyl-3-zyklohexenkarbon- säure, 2-Methyl-3-zyklohexenkarbonsäuremethylester, Ammoniumsalz der 2-Methyl-3-zyklohexenkarbonsäure behandelt. Die Emulsion enthält 0,01 Masse% Tetrahydrofuran und 0,1 Masse% C12-C14-Kalziumalkylbenzolsulfonat. Der Verbrauch an Präparat beträgt 6 kg/ha. Als Kontrolle dienen Pflanzen, behandelt mit einem Verdünner ohne Sterilisationsmittel.

[5] = system: Sommerweizens Sorte Rodina; type: in vivo, Sommerweizen; conditions: V. und VI. Periode, 1%ige wäßrige Emulsion, 6 kg/ha
Description: as §1, §2, §3, §4, §5, §6
Pflanzen des Sommerweizens Sorte Rodina werden in der V. und VI. Periode der Organogenese (nach Kupermann) mit einer l%igen wäßrigen Emulsion von Ammoniumsalz der 2-Methyl-3-zyklohexenkarbonsäure, Phthalsäuredihexylester, Phthalsäurediisobutylester behandelt. Die Emulsion enthält 0,01 Masse% Dodezysulfat und 0,1 Masse% C12-C14--Kalziumalkylbenzolsulfonat. Der Verbrauch an Präparat beträgt 6 kg/ha. Als Kontrolle dienen Pflanzen, behandelt mit einem Verdünner ohne Sterilisationsmittel.

[6] = system: Winterweizens Sorte Priboi; type: in vivo, Winterweizen; conditions: V. und VI. Periode, 2%ige wäßrige Emulsion, 12 kg/ha; for Prozentsatz des Ansetzens der Körner bei freier Bestäubung: control = 100
Description: as §1, §2, §3, §4, §5, §6
Pflanzen des Winterweizens Sorte Priboi werden in der V. und VI. Periode der Organogenese (nach Kupermann) mit einer 2%igen wäßrigen Emulsion von Kaliumsalz der 2-Methyl--3-zyklohexenkarbonsäure, 2-Methyl-3-zyklohexenkarbonsäure- methylester, Pnthalsäuredipropylester, Phthalsäurediisobutylester behandelt. Die Emulsion enthält 0,01 Masse% Dimethylsulfoxid und 0,1 Masse% C12-C14 -Kalziumalkylbenzolsulfonat. Der Verbrauch an Präparat beträgt 12 kg/ha. Als Kontrolle dienen Pflanzen, behandelt mit einem Verdünner ohne Sterilisationsmittel.

With `CCCCOC(=O)c1ccccc1C(=O)OCCCC` [Beispiel 30, Phthalsäuredibutylester] the “Kornzahl der Ähre bei freier Bestäubung” value [1] was 30,6, the “Kornzahl der Ähre im Isolator” value [1] was 0,2 and the “Prozentsatz der Sterilität” value [1] was 99,4%. The “Prozentsatz des Ansetzens der Körner bei freier Bestäubung” value [1] was 81,8%, the “Kornzahl der Ähre bei freier Bestäubung” value [2] was 66,8 and the “Kornzahl der Ähre im Isolator” value [2] was 1,0. The “Prozentsatz der Sterilität” value [2] was 98,4% and the “Prozentsatz des Ansetzens der Körner bei freier Bestäubung” value ([2]; control = 100) was 96,8%.
`CC(C)COC(=O)c1ccccc1C(=O)OCC(C)C` [Beispiel 59, Phthalsäurediisobutylester] was tested, and the “Kornzahl der Ähre bei freier Bestäubung” value [3] was 34,7, the “Kornzahl der Ähre im Isolator” value [3] was 0,0 and the “Prozentsatz der Sterilität” value [3] was 100,0%. For the same compound, the “Prozentsatz des Ansetzens der Körner bei freier Bestäubung” value [3] was 94,2%.
`COC(=O)C1CCC=CC1C` (stereo not shown) [Beispiel 46, 2-Methyl-3-zyklohexenkarbonsäuremethylester] was tested, and the “Kornzahl der Ähre bei freier Bestäubung” value [4] was 32,6, the “Kornzahl der Ähre im Isolator” value [4] was 0,0 and the “Prozentsatz der Sterilität” value [4] was 100,0%. The “Prozentsatz des Ansetzens bei freier Bestäubung” value [4] was 89,6%.
For `CCOC(=O)c1ccccc1C(=O)OCC` [Beispiel 57, Phthalsäurediäthylester], the “Kornzahl der Ähre bei freier Bestäubung” value [3] was 30,7, the “Kornzahl der Ähre im Isolator” value [3] was 0,0 and the “Prozentsatz der Sterilität” value [3] was 100,0%. For the same compound, the “Prozentsatz des Ansetzens der Körner bei freier Bestäubung” value [3] was 83,4%.
For `CC1C=CCCC1C(=O)[O-].[Na+]` (stereo not shown) [Beispiel 32, Natriumsalz der 2-Methyl-3-zyklo-hexenkarbonsäure], the “Kornzahl der Ähre bei freier Bestäubung” value [1] was 32,9, the “Kornzahl der Ähre im Isolator” value [1] was 1,0 and the “Prozentsatz der Sterilität” value [1] was 97,0%. For the same compound, the “Prozentsatz des Ansetzens der Körner bei freier Bestäubung” value [1] was 88,0%.
For `CC1C=CCCC1C(=O)O` (stereo not shown) [Beispiel 56, Ammoniumsalz der 2-Methyl-3--zyklohexenkarbonsäure], the “Kornzahl der Ähre bei freier Bestäubung” value [3] was 32,1, the “Kornzahl der Ähre im Isolator” value [3] was 0,0 and the “Prozentsatz der Sterilität” value [3] was 100,0%. The “Prozentsatz des Ansetzens der Körner bei freier Bestäubung” value [3] was 87,2%.
In the case of `CCCOC(=O)c1ccccc1C(=O)OCCC` [Beispiel 31, Phthalsauredipropylester], the “Kornzahl der Ähre bei freier Bestäubung” value [1] was 31,5, the “Kornzahl der Ähre im Isolator” value [1] was 0,5 and the “Prozentsatz der Sterilität” value [1] was 98,5%. The “Prozentsatz des Ansetzens der Körner bei freier Bestäubung” value [1] was 84,2%.
`O=C(O)c1ccccc1` [Beispiel 58, Kaliumsalz der Benzoesäure] was tested, and the “Kornzahl der Ähre bei freier Bestäubung” value [3] was 35,8, the “Kornzahl der Ähre im Isolator” value [3] was 4,2 and the “Prozentsatz der Sterilität” value [3] was 85,0%. The “Prozentsatz des Ansetzens der Körner bei freier Bestäubung” value [3] was 97,3%.
`CCCOC(=O)c1ccccc1C(=O)OCCC` [Beispiel 43, Phthalsäuredipropylester] was tested, and the “Kornzahl der Ähre bei freier Bestäubung” value [4] was 31,8, the “Kornzahl der Ähre im Isolator” value [4] was 0,0 and the “Prozentsatz der Sterilität” value [4] was 100,0%. The “Prozentsatz des Ansetzens bei freier Bestäubung” value [4] was 87,3%.
With `CCCCCCOC(=O)c1ccccc1C(=O)OCCCCCC` [Beispiel 35, Phthalsäuredihexylester] the “Kornzahl der Ähre bei freier Bestäubung” value [5] was 33,6, the “Kornzahl der Ähre im Isolator” value [5] was 0,0 and the “Prozentsatz der Sterilität” value [5] was 100,0%. For the same compound, the “Prozentsatz des Ansetzens der Körner bei freier Bestäubung” value ([5]; control = 100) was 91,8%.
`CCCOC(=O)c1ccccc1C(=O)OCCC` [Beispiel 16, Pnthalsäuredipropylester] was tested, and the “Kornzahl der Ähre bei freier Bestäubung” value [6] was 32,6, the “Kornzahl der Ähre im Isolator” value [6] was 5,6 and the “Prozentsatz der Sterilität” value [6] was 82,6%. The “Prozentsatz des Ansetzens der Körner bei freier Bestäubung” value [6] was 88,6%.
`CC1C=CCCC1C(=O)O` (stereo not shown) [Beispiel 45, Kaliumsalz der 2-Methyl-3-zyklohexenkarbon-säure] was tested, and the “Kornzahl der Ähre bei freier Bestäubung” value [4] was 31,8, the “Kornzahl der Ähre im Isolator” value [4] was 0,1 and the “Prozentsatz der Sterilität” value [4] was 99,7%. The “Prozentsatz des Ansetzens bei freier Bestäubung” value [4] was 87,3%.
In the case of `COC(=O)C1CCC=CC1C` (stereo not shown) [Beispiel 15, 2-Methyl-3-zyklohexenkarbonsäure-methylester], the “Kornzahl der Ähre bei freier Bestäubung” value [6] was 34,8, the “Kornzahl der Ähre im Isolator” value [6] was 0,0 and the “Prozentsatz der Sterilität” value [6] was 100,0%. The “Prozentsatz des Ansetzens der Körner bei freier Bestäubung” value [6] was 94,6%.
With `CC(C)COC(=O)c1ccccc1C(=O)OCC(C)C` [Beispiel 17, Phthalsäurediisobutylester] the “Kornzahl der Ähre bei freier Bestäubung” value [6] was 33,7, the “Kornzahl der Ähre im Isolator” value [6] was 0,0 and the “Prozentsatz der Sterilität” value [6] was 100,0%. For the same compound, the “Prozentsatz des Ansetzens der Körner bei freier Bestäubung” value [6] was 91,6%.
For `COC(=O)C1CCC=CC1C` (stereo not shown) [Beispiel 33, 2-Methyl-3-zyklohexenkarbonsäuremethyl-ester], the “Kornzahl der Ähre bei freier Bestäubung” value [1] was 34,2, the “Kornzahl der Ähre im Isolator” value [1] was 0,0 and the “Prozentsatz der Sterilität” value [1] was 100,0%. For the same compound, the “Prozentsatz des Ansetzens der Körner bei freier Bestäubung” value [1] was 91,4%.
For `CC(C)COC(=O)c1ccccc1C(=O)OCC(C)C` [Beispiel 44, Phthalsäurediisobutylester], the “Kornzahl der Ähre bei freier Bestäubung” value [4] was 32,5, the “Kornzahl der Ähre im Isolator” value [4] was 0,0 and the “Prozentsatz der Sterilität” value [4] was 100,0%. For the same compound, the “Prozentsatz des Ansetzens bei freier Bestäubung” value [4] was 89,3%.
For `CC1C=CCCC1C(=O)[O-].[K+]` (stereo not shown) [Beispiel 14, Kaliumsalz der 2-Methyl--3-zyklohexenkarbonsäure], the “Kornzahl der Ähre bei freier Bestäubung” value [6] was 35,1, the “Kornzahl der Ähre im Isolator” value [6] was 0,0 and the “Prozentsatz der Sterilität” value [6] was 100,0%. The “Prozentsatz des Ansetzens der Körner bei freier Bestäubung” value [6] was 95,4%.
For `CC1C=CCCC1C(=O)O` (stereo not shown) [Beispiel 47, Ammoniumsalz der 2-Methyl-3-zyklohexenkarbonsäure], the “Kornzahl der Ähre bei freier Bestäubung” value [4] was 37,5, the “Kornzahl der Ähre im Isolator” value [4] was 6,8 and the “Prozentsatz der Sterilität” value [4] was 79,7%. For the same compound, the “Prozentsatz des Ansetzens bei freier Bestäubung” value [4] was 103,1%.

Reference: patent EP0364581A1, “METHOD OF STERILIZING PLANT POLLEN” (VSESOJUZNY NAUCHNO-ISSLEDOVATELSKY INST. SELSKOKHOZYAISTV. …, priority 1988, dated 1989)
